Test results taken from patent publication EP4610269A1, “UROKINASE PLASMINOGEN ACTIVATOR SURFACE RECEPTOR (UPAR) LIGANDS FOR DIAGNOSTIC OR THERAPEUTIC USE” (3B Pharmaceuticals GmbH, priority 2024, dated 2025).
*1 amine or outer side, *2 acyl side, *3 side chain or, on linkers, in order; H or OH if unused. Where a SMILES comes first, the peptide text is derived from it. Bridges are numbered along the chain shown (N, C = ends). [ ]: non-standard residue; d: D form. The star is where a group is joined. Pro(trans-4-NH2) = O=C([C@@H]1C[C@@H](N[*:3])CN1[*:1])[*:2]; DOTA = O=C(O)CN1CCN(CC(=O)O)CCN(CC(=O)*)CCN(CC(=O)O)CC1; Hyp = O=C(O)[C@@H]1C[C@@H](O)CN1; 3Pal = N[C@@H](Cc1cccnc1)C(=O)O; Pentanoyl(4-Me) = CC(C)CCC(=O)*; Cit = NC(=O)NCCC[C@H](N)C(=O)O; Suc = O=C(CCC(=O)[*:2])[*:1]; Nva = CCC[C@H](N)C(=O)O; Pentanoyl = CCCCC(=O)*; AEEA = NCCOCCOCC(=O)O

Key:
[1] = target: T1, uPAR-expressing HEC-265 human endometrial adenocarcinoma cells (Homo sapiens, UniProt Q03405); assay: Competitive FACS binding assay; conditions: pIC50 category of FACS binding
T1 construct: Cell surface uPAR-expressing HEC-265 human endometrial adenocarcinoma cells; host or cells: HEC-265
In short: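 HEC-265 cells incubated 1 h at 4 °C with 10 nM biotinylated uPAR peptide tracer plus increasing test compound, then stained with APC-streptavidin on ice. Median APC fluorescence by flow cytometry; 4PL fit gives pIC50.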

[2] = target: T2, Recombinant soluble human NEP (Homo sapiens, UniProt P08473); assay: Proteolytic stability assay against NEP; assay type: in vitro ADME; conditions: recombinant soluble human NEP, human NEP 100 ng/mL, compound 10 µM, 37°C, LC-MS quantification, read-out: % intact compound remaining after 24h incubation
T2 construct: Recombinant soluble human NEP; purchased BioTechne, Wiesbaden, Germany
Procedure: To assess the stability of compounds against NEP, the compounds were subjected to an in vitro assay based on the protocol described by Edelson et al. (Edelson, Makhlina et al. 2013).
Recombinant soluble human NEP (BioTechne, Wiesbaden, Germany) at a concentration of 100 ng/mL was mixed with the compound (10 µM) and a stable internal standard (10 µM) and incubated at 37°C. After several time points, samples were taken and analyzed with LC-MS.
The determination of the analyte in the clean sample solutions was performed on an Agilent 1290 UHPLC system coupled to an Agilent 6530 Q-TOF mass spectrometer. The chromatographic separation was carried out on a Phenomenex BioZen XB-C18 HPLC column (50 × 2 mm, 1.7 µm particle size) with gradient elution using a mixture of 0.1% formic acid in water as eluent A and acetonitrile as eluent B (2% B to 41% in 7 min, 800 µl/min, 40°C). Mass spectrometric detection was performed in positive ion ESI mode by scanning the mass range from m/z 50 to 3000 with a sampling rate of 2 / sec.
From the mass spectrometric raw data the ion currents for the double or triple charged monoisotopic signal was extracted for both, the compound and the internal standard.
Quantitation was performed by external matrix calibration with internal standard using the integrated analyte signals.
The activity of NEP was examined using a commercially available chromogenic substrate of NEP.
The result is stated as "% intact compound remaining after 24 h incubation" and means that from the amount of material at the start of the experiment the stated percentage is detected as unchanged material at the end of the experiment by LC-MS quantification. Since all compounds are more than 50% intact after 24 h they are considered as stable enough for diagnostic and therapeutic applications. Table 14: Results of the NEP stability assay

T2 sequence (P08473 52-750 limits assumed): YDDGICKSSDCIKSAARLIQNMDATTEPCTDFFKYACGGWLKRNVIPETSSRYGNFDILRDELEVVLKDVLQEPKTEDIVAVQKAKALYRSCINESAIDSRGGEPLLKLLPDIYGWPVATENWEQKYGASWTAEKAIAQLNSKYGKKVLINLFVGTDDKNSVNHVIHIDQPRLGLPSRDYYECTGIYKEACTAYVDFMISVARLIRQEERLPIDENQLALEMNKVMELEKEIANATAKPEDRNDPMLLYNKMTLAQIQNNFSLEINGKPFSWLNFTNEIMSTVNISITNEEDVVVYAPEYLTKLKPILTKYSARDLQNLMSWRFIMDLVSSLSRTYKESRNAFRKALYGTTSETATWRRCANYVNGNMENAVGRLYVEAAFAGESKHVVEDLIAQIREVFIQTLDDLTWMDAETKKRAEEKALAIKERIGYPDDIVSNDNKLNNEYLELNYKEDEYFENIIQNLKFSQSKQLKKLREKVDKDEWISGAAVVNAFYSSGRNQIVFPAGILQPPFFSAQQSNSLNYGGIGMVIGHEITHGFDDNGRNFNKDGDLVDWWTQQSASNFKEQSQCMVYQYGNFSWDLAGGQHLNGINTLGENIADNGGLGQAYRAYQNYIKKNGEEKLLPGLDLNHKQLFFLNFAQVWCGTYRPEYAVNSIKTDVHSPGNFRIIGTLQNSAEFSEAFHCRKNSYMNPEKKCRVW
T1 sequence (Q03405 23-335): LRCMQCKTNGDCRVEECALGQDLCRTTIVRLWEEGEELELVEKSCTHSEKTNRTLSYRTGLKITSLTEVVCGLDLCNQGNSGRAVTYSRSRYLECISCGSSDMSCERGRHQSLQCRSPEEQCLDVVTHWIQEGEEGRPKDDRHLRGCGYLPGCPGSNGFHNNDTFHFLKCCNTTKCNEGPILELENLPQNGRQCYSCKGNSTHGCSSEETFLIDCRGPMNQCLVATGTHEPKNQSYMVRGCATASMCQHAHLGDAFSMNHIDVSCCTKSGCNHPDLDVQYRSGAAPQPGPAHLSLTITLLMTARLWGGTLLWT

IC50 [1] [nM] | remaining at 24 h, 10 µM [2] [%] | Compound
39.8 to 100 | 61 | CC[C@H](C)[C@@H]1NC(=O)[C@@H](C)NC(=O)[C@@H]2CCCN2C(=O)[C@H](Cc2ccccc2)NC(=O)[C@H](Cc2ccc(O)cc2)NC(=O)[C@H](CCC(N)=O)NC(=O)[C@H](CCCNC(N)=O)NC(=O)[C@@H](NC(=O)[C@H](CC(C)C)NC(=O)CN2CCN(CC(=O)O)CCN(CC(=O)O)CCN(CC(=O)O)CC2)CSSC[C@@H](C(N)=O)NC(=O)[C@H](CC(C)C)NC1=O [UPAR-441, DOTA-Leu-[Cys-Cit-Gln-Tyr-Phe-Pro-ala-Ile-Leu-Cys]-NH2] ({DOTA}-LC[Cit]QYFP[dA]ILC-NH2; disulfide 2-11)
≤ 10 | 88 | CC[C@H](C)[C@@H]1NC(=O)[C@@H](CCCNC(=N)N)NC(=O)[C@@H]2CCCN2C(=O)[C@H](Cc2ccccc2)NC(=O)[C@H](Cc2ccc(O)cc2)NC(=O)[C@H](CCCCNC(=O)CN2CCN(CC(=O)O)CCN(CC(=O)O)CCN(CC(=O)O)CC2)NC(=O)[C@H](CCCNC(N)=O)NC(=O)[C@@H](NC(=O)[C@H](CC(C)C)NC(=O)[C@H](CC(=O)O)NC(C)=O)CSSC[C@@H](C(N)=O)NC(=O)[C@H](CC(C)C)NC1=O [UPAR-306, Ac-Asp-Leu-[Cys-Cit-Lys(DOTA)-Tyr-Phe-Pro-arg-Ile-Leu-Cys]-NH2] (Ac-DLC[Cit]K(DOTA)YFP[dR]ILC-NH2; disulfide 3-12)
≤ 10 | > 95 | CCC[C@H](NC(=O)CCC(=O)O)C(=O)N[C@H]1CSSC[C@@H](C(N)=O)NC(=O)[C@H](CCC)NC(=O)[C@H]([C@@H](C)CC)NC(=O)[C@@H]2C[C@@H](O)CN2C(=O)[C@@H]2CCCN2C(=O)[C@H](Cc2ccccc2)NC(=O)[C@H](Cc2ccc(O)cc2)NC(=O)[C@H](CCCCNC(=O)CN2CCN(CC(=O)O)CCN(CC(=O)O)CCN(CC(=O)O)CC2)NC(=O)[C@H](CCCNC(N)=O)NC1=O [UPAR-293, HO-Succinyl-Nva-[Cys-Cit-Lys(DOTA)-Tyr-Phe-Pro-Hyp-Ile-Nva-Cys]-NH2] (Suc-[Nva]C[Cit]K(DOTA)YFP[Hyp]I[Nva]C-NH2; disulfide 2-11)
≤ 10 | 84 | CC[C@H](C)[C@@H]1NC(=O)[C@@H]2CCCN2C(=O)[C@@H]2CCCN2C(=O)[C@H](Cc2ccccc2)NC(=O)[C@H](Cc2ccc(O)cc2)NC(=O)[C@H](CCC(N)=O)NC(=O)[C@H](CCCNC(N)=O)NC(=O)[C@@H](NC(=O)[C@H](CC(C)C)NC(=O)COCCOCCNC(=O)CN2CCN(CC(=O)O)CCN(CC(=O)O)CCN(CC(=O)O)CC2)CSSC[C@@H](C(N)=O)NC(=O)[C@H](CC(C)C)NC1=O [UPAR-229, DOTA-O2Oc-Leu-[Cys-Cit-Gln-Tyr-Phe-Pro-Pro-Ile-Leu-Cys]-NHz] ({DOTA-AEEA}-LC[Cit]QYFPPILC-NH2; disulfide 2-11)
≤ 10 | 94 | CCCCC(=O)N[C@H]1CSSC[C@@H](C(N)=O)NC(=O)[C@H](CCC)NC(=O)[C@H]([C@@H](C)CC)NC(=O)[C@@H]2C[C@@H](O)CN2C(=O)[C@@H]2CCCN2C(=O)[C@H](Cc2ccccc2)NC(=O)[C@H](Cc2cccnc2)NC(=O)[C@H](CCCCNC(=O)CN2CCN(CC(=O)O)CCN(CC(=O)O)CCN(CC(=O)O)CC2)NC(=O)[C@H](CCCNC(N)=O)NC1=O [UPAR-138, Pent-[Cys-Cit-Lys(DOTA)-Mpa-Phe-Pro-Hyp-Ile-Nva-Cys]-NH2] (Pentanoyl-C[Cit]K(DOTA)[3Pal]FP[Hyp]I[Nva]C-NH2; disulfide 1-10)
≤ 10 | > 95 | CC[C@H](C)[C@@H]1NC(=O)[C@@H]2C[C@@H](NC(=O)CN3CCN(CC(=O)O)CCN(CC(=O)O)CCN(CC(=O)O)CC3)CN2C(=O)[C@@H]2CCCN2C(=O)[C@H](Cc2ccccc2)NC(=O)[C@H](Cc2ccc(O)cc2)NC(=O)[C@H](CCC(N)=O)NC(=O)[C@H](CCCNC(N)=O)NC(=O)[C@@H](NC(=O)CCC(C)C)CSSC[C@@H](C(N)=O)NC(=O)[C@H](CC(C)C)NC1=O [UPAR-389, iHex-[Cys-Cit-Gln-Tyr-Phe-Pro-Tap(DOTA)-Ile-Leu-Cys]-NH2] ({Pentanoyl(4-Me)}-C[Cit]QYFP[Pro(trans-4-NH2)](DOTA)ILC-NH2; disulfide 1-10)
≤ 10 | 94 | CC[C@H](C)[C@@H]1NC(=O)[C@@H](C)NC(=O)[C@@H]2CCCN2C(=O)[C@H](Cc2ccccc2)NC(=O)[C@H](Cc2ccc(O)cc2)NC(=O)[C@H](CCCCNC(=O)CN2CCN(CC(=O)O)CCN(CC(=O)O)CCN(CC(=O)O)CC2)NC(=O)[C@H](CCCNC(N)=O)NC(=O)[C@@H](NC(=O)[C@H](CC(C)C)NC(=O)[C@H](CC(=O)O)NC(C)=O)CSSC[C@@H](C(N)=O)NC(=O)[C@H](CC(C)C)NC1=O [UPAR-189, Ac-Asp-Leu-[Cys-Cit-Lys(DOTA)-Tyr-Phe-Pro-ala-Ile-Leu-Cys]-NH2] (Ac-DLC[Cit]K(DOTA)YFP[dA]ILC-NH2; disulfide 3-12)
≤ 10 | > 95 | CC[C@H](C)[C@@H]1NC(=O)[C@@H]2CCCN2C(=O)[C@@H]2CCCN2C(=O)[C@H](Cc2ccccc2)NC(=O)[C@H](Cc2ccc(O)cc2)NC(=O)[C@H](CCCCNC(=O)CN2CCN(CC(=O)O)CCN(CC(=O)O)CCN(CC(=O)O)CC2)NC(=O)[C@H](CCCNC(N)=O)NC(=O)[C@@H](NC(=O)CCC(C)C)CSSC[C@@H](C(N)=O)NC(=O)[C@H](CC(C)C)NC1=O [UPAR-382, iHex-[Cys-Cit-Lys(DOTA)-Tyr-Phe-Pro-Pro-Ile-Leu-Cys]-NHz] ({Pentanoyl(4-Me)}-C[Cit]K(DOTA)YFPPILC-NH2; disulfide 1-10)
≤ 10 | 70 | CC[C@H](C)[C@@H]1NC(=O)[C@@H](C)NC(=O)[C@@H]2CCCN2C(=O)[C@H](Cc2ccccc2)NC(=O)[C@H](Cc2ccc(O)cc2)NC(=O)[C@H](CCC(N)=O)NC(=O)[C@H](CCCNC(N)=O)NC(=O)[C@@H](NC(=O)CCC(C)C)CSSC[C@@H](C(N)=O)NC(=O)[C@H](CC(C)C)NC1=O [UPAR-338, iHex-[Cys-Cit-Gln-Tyr-Phe-Pro-ala-Ile-Leu-Cys]-NH2] ({Pentanoyl(4-Me)}-C[Cit]QYFP[dA]ILC-NH2; disulfide 1-10)
≤ 10 | 95 | CCCCC(=O)N[C@H]1CSSC[C@@H](C(N)=O)NC(=O)[C@H](CCC)NC(=O)[C@H]([C@@H](C)CC)NC(=O)[C@@H]2C[C@@H](O)CN2C(=O)[C@@H]2C[C@@H](O)CN2C(=O)[C@H](Cc2ccccc2)NC(=O)[C@H](Cc2ccc(O)cc2)NC(=O)[C@H](CCCCNC(=O)CN2CCN(CC(=O)O)CCN(CC(=O)O)CCN(CC(=O)O)CC2)NC(=O)[C@H](CCCNC(N)=O)NC1=O [UPAR-403, Pent-[Cys-Cit-Lys(DOTA)-Tyr-Phe-Hyp-Hyp-Ile-Nva-Cys]-NH2] (Pentanoyl-C[Cit]K(DOTA)YF[Hyp][Hyp]I[Nva]C-NH2; disulfide 1-10)
≤ 10 | 90 | CC[C@H](C)[C@@H]1NC(=O)[C@@H]2C[C@@H](O)CN2C(=O)[C@@H]2CCCN2C(=O)[C@H](Cc2ccccc2)NC(=O)[C@H](Cc2ccc(O)cc2)NC(=O)[C@H](CCC(N)=O)NC(=O)[C@H](CCCNC(N)=O)NC(=O)[C@@H](NC(=O)CCC(C)C)CSSC[C@@H](C(N)=O)NC(=O)[C@H](CC(C)C)NC1=O [UPAR-174, iHex-[Cys-Cit-Gln-Tyr-Phe-Pro-Hyp-Ile-Leu-Cys]-NH2] ({Pentanoyl(4-Me)}-C[Cit]QYFP[Hyp]ILC-NH2; disulfide 1-10)
≤ 10 | > 95 | CC[C@H](C)[C@@H]1NC(=O)[C@@H](C)NC(=O)[C@@H]2CCCN2C(=O)[C@H](Cc2ccccc2)NC(=O)[C@H](Cc2ccc(O)cc2)NC(=O)[C@H](CC(=O)O)NC(=O)[C@H](CCCNC(N)=O)NC(=O)[C@@H](NC(=O)CCC(C)C)CSSC[C@@H](C(N)=O)NC(=O)[C@H](CC(C)C)NC1=O [UPAR-434, iHex-[Cys-Cit-Asp-Tyr-Phe-Pro-ala-Ile-Leu-Cys]-NH2] ({Pentanoyl(4-Me)}-C[Cit]DYFP[dA]ILC-NH2; disulfide 1-10)
≤ 10 | 86 | CCCCC(=O)N[C@H]1CSSC[C@@H](C(N)=O)NC(=O)[C@H](CCC)NC(=O)[C@H]([C@@H](C)CC)NC(=O)[C@@H]2C[C@@H](O)CN2C(=O)[C@@H]2CCCN2C(=O)[C@H](Cc2ccccc2)NC(=O)[C@H](Cc2ccc(O)cc2)NC(=O)[C@H](CCCCNC(=O)CN2CCN(CC(=O)O)CCN(CC(=O)O)CCN(CC(=O)O)CC2)NC(=O)[C@H](CCCNC(N)=O)NC1=O [UPAR-261, Pent-[Cys-Cit-Lys(DOTA)-Tyr-Phe-Pro-Hyp-Ile-Nva-Cys]-NH2] (Pentanoyl-C[Cit]K(DOTA)YFP[Hyp]I[Nva]C-NH2; disulfide 1-10)
